The values that follow come from patent US9233143B2, “Medicinal agent for preventing exacerbation of malignant tumor, comprising combination of natriuretic peptide receptor GC-A and GC-B agonists” (National Cerebral and Cardiovascular Center, priority 2011, dated 2016).

Assay [1] has as its system A549 cells. Description: EMT induced by TGF-β1 in A549 cells (morphology, quantitative RT-PCR). The format is cell-based, human. To be noted: for effect of suppressing EMT: concentration of 1 μM, summary of Example 2. The protocol: Using a 6-well dish, the A549 cells were cultured at 1×10^5 cells/well, and the culture medium was replaced with DMEM culture medium free from FBS the next day. After 24 hours of culture, the cells were used in the following experiment.
An ANP group (a hANP solution was added (final concentration: 1 μM)) and a control group (the same amount of physiological saline was added) were prepared, and after 2 hours from the addition (of the hANP solution or the physiological saline) to the A549 cells, TGF-β1 was added so that the final concentration would be 0.125, 0.25, 0.5, 1.0, and 2.0 ng/mL. After 24 hours had passed, the morphological change in the cells was observed under a microscope and photographed (FIG. 2).
Then, total RNA was recovered from the above prepared ANP group and control group using TRIZOL total RNA isolation reagent (made by Invitrogen), cDNA was synthesized using reverse transcriptase, and the mRNA levels of E-cadherin, N-cadherin, VEGF-A, PDGF-B, TNF-α, and IL-6 were measured by quantitative RT-PCR. The mRNA level of each intended gene was calculated as the relative ratio of the mRNA amount of the gene to that of the housekeeping gene 36B4 measured at the same time. In the Examples below, unless otherwise stated, the mRNA levels were obtained through the same calculation.
It is known that in EMT, the expression of E-cadherin decreases while the expression of N-cadherin increases. The expression ratio of the two kinds of cadherin (N-cad/E-cad) is considered to be useful as an indicator of the degree of EMT.

A further assay relates to A549 cells and CAFs. Nature of the assay: Mouse models having transplanted cancer cells and CAFs, administration started after tumor tissue was established (Example 6). The format is in vivo. To be noted: hCNP-22 alone 2.5 μg/kg/min, started 2 weeks after transplantation, 4 weeks, FIG. 10. As for the experimental part: In this Example and Example 6, 5-week-old male immunodeficient mice (KSN mice, Japan SLC, Inc.) were used. The osmotic pumps used were MODEL2004 (for 28-day administration) made by ALZET (Cupertino, Calif.). A mixed suspension of the A549 cells and the CAFs was prepared using DMEM free from FBS so as to contain the A549 cells at 1×10^6 cells/100 μL and the CAFs at 0.5×10^6 cells/100 μL. The mixed suspension in an amount of 100 μL per mouse was subcutaneously injected in the back of the immunodeficient mice. […] After 2 weeks of observation from the injection of the cell suspension, the mice to which the mixed suspension had been injected were randomly divided into 4 groups (control group, ANP group, CNP group, and ANP+CNP group), and an osmotic pump appropriately adjusted for each group as shown below was subcutaneously implanted to start administration. • Control group and A549 group: physiological saline was administered • ANP group: hANP was administered at 0.5 μg/kg/min • CNP group: hCNP-22 was administered at 2.5 μg/kg/min • ANP+CNP group: hANP was administered at 0.5 μg/kg/min and hCNP-22 was administered at 2.5 μg/kg/min Observation was further continued for 4 weeks after the start of administration, the tumor size at the cell injection site was measured weekly, and tumor volume was calculated in the same way as in Example 5 (FIG. 10).

For assay [2], the system named is A549 cells co-cultured with CAFs. Description: Co-culture system of cancer cells and CAFs (mRNA of the A549 cells). Type of assay: cell-based, human. To be noted: each test substance 1 μM. The protocol:
In a 6-well dish, the A549 cells were cultured at 1×10^5 cells/well. The culture medium was replaced with DMEM culture medium free from FBS the next day, and the cells were further cultured for 24 hours. In a 6-well dish having a cell culture insert (1.0 μm pore size, made by BD), the CAFs were cultured at 5×10^4 cells/well. The culture medium was replaced with DMEM culture medium containing 1% FBS the next day, and the cells were further cultured for 24 hours. To each culture medium of the two kinds of cells, test substances were separately added to prepare test substance addition groups. Control groups with no test substance were also prepared. After two hours of culture, these were subjected to co-culture. The test substance addition groups were ANP groups containing hANP at a final concentration of 1 μM, CNP groups containing hCNP-22 at a final concentration of 1 μM, and ANP+CNP groups containing both hANP and hCNP-22 each at a final concentration of 1 μM. Each of the groups were prepared by adding the test substance to each culture medium of the two kinds of cells.
On the 6-well dish of A549 cells treated as above, the above cell culture insert with the CAFs was placed to prepare a co-culture experimental model where only the culture media could pass through the cell culture insert. After 24, 48, and 72 hours of culture, total RNA of the A549 cells only was recovered, cDNA was synthesized, and the mRNA levels of E-cadherin, N-cadherin, VEGF-A, PDGF-B, and IL-6 were measured by quantitative RT-PCR (FIGS. 6 to 8). The experiment using ANP alone (ANP groups: FIG. 6), the experiment using CNP alone (CNP groups: FIG. 7), and the experiment using ANP and CNP in combination (ANP+CNP group: FIG. 8) were independently conducted, where control groups were separately set for each experiment.

Assay [3] deals with cancer-associated fibroblasts (CAFs). Description: Changes in the intracellular cGMP level in response to natriuretic peptide stimulus, CAFs. Type of assay: cell-based, human. To be noted: 1×10^−11 M to 1×10^−6 M, 10 minutes, FIG. 1B. The protocol:
For obtaining CAFs (cancer-associated fibroblasts), tissue harvested from a patient having lung cancer surgery was subjected to primary culture after the consent of the patient was obtained. The cells were then cultured in DMEM culture medium containing 10% FCS under 5% CO2 at 37° C., and the cells of the 5th and earlier passages were used.
(§1) The A549 cells were cultured in a 24-well dish at 4×10^4 cells/well, and the culture medium was replaced with DMEM culture medium free from FCS the next day. The CAFs were cultured in a 24-well dish at 1×10^4 cells/well, and the culture medium was replaced with DMEM culture medium containing 1% FCS the next day.
(§2) To these culture media, solutions of hANP, hBNP, and hCNP-22 (final concentration: ten-fold serial dilution from 1×10^−11 M to 1×10^−6 M, the same amount of physiological saline was used as a control) were separately added. After 10 minutes had passed, 400 μL of cooled 70% ethanol (containing 0.1 N hydrochloric acid) was added, and ultrasonication was performed for a short time. The treated solution was lyophilized, and the cGMP level was measured using Cyclic GMP Assay kit (made by Yamasa Corp.).

The subject of assay [4] is A549 cells. Description: Changes in the intracellular cGMP level in response to natriuretic peptide stimulus, A549 cells. Type of assay: cell-based, human. To be noted: 1×10^−11 M to 1×10^−6 M, 10 minutes, FIG. 1A. As for the experimental part: Lung adenocarcinoma cell line, A549 cells, was obtained from ATCC (Manassas, Va.). The cells were cultured in DMEM culture medium (Invitrogen, Carlsbad, Va.) containing 10% FCS under 5% CO2 at 37° C. The amounts of the culture medium were 1.5 mL for each well of a 6-well dish, 400 μL for each well of a 24-well dish, and 150 μL for each well of a 96-well dish. In the Examples below, unless otherwise stated, the same culture medium and culture conditions were adopted.
as §1, §2

For another assay, the system named is CAFs. Description: Production of cancer exacerbation factors by CAFs under TGF-β1 stimulus (quantitative RT-PCR). Type of assay: cell-based, human. To be noted: test substance 1 μM, TGF-β1 0.125-2.0 ng/mL, 24 hours, mRNA level, FIG. 5. As for the experimental part: Using a 6-well dish, the CAFs were cultured at 5×10^4 cells/well, and the culture medium was replaced with DMEM culture medium containing 1% FBS the next day. After 24 hours of culture, the cells were used in the following experiment.
A CNP group (a hCNP-22 solution was added (final concentration: 1 μM)) and a control group (the same amount of physiological saline was added) were prepared, and after 2 hours from the addition (of the hCNP-22 solution or the physiological saline) to the CAFs, TGF-β1 was added so that the final concentration would be 0.125, 0.25, 0.5, 1.0, and 2.0 ng/mL. After 24 hours had passed, total RNA was recovered using TRIZOL total RNA isolation reagent, cDNA was synthesized using reverse transcriptase, and the mRNA levels of VEGF-A, TGF-β1, TNF-α, and IL-6 were measured by quantitative RT-PCR.

For a further assay, the system named is tumor cells. To be noted: reports by Vesely et al.; cited from earlier work.
Where [5] appears, read: A549 cells, test substance 1 μM, mRNA level, FIG. 3.

As for “hCNP-22: 22-amino acid CNP-22 of human origin (GLSKGCFGLKLDRIGSMSGLGC: SEQ ID NO: 7), GC-B agonist (GLSKGCFGLKLDRIGSMSGLGC; listed as Homo sapiens)”, in the assay on A549 cells [1] (A549 cells, test substance 1 μM, 24 hours after TGF-β1, FIG. 2), the “morphological change in the cells associated with EMT induced by the TGF-β1 stimulus” value was “the same as those of the control”. Further, in the assay with A549 cells [1] (A549 cells, test substance 1 μM, TGF-β1 0.125-2.0 ng/mL, 24 hours, mRNA level, FIG. 3), the “gene expression of the growth factors (VEGF-A, PDGF-B) and the inflammatory cytokines (TNF-α, IL-6) increased by EMT induced by the TGF-β1 stimulus” value is “the same as those of the control”. Also, in the assay on A549 cells [1] (setting [5]), the “decrease in the expression of E-cadherin induced by the TGF-β1 stimulus” value is on record as “the same as those of the control” and the “increase in the expression of N-cadherin induced by the TGF-β1 stimulus” value is on record as “the same as those of the control”. Besides, in the assay on A549 cells [1], the “effect of suppressing EMT” value is given as “did not show such an effect at all”. Moreover, the “tumor growth as compared with the control group” value in the assay with A549 cells and CAFs is on record as “showed an effect of tumor growth suppression”. Also, the “gene expression of the growth factors (VEGF-A, PDGF-B) and inflammatory cytokine (IL-6) increased in the co-culture” value in assay [2] (A549 cells co-cultured with CAFs 24, 48, 72 hours, FIGS. 6 to 8) is “could not suppress”. The “expression ratio of N-cadherin/E-cadherin (N-cad/E-cad), indicator of EMT, in the co-culture” value in assay [2] (A549 cells co-cultured with CAFs, FIGS. 6D, 7D, 8D) is reported as “did not show any effect”. Moreover, the “cGMP level of the CAFs” value in assay [3] is listed as “increased the cGMP level of the CAFs in a concentration-dependent manner”. For the same substance, the “intracellular cGMP level of the A549 cells” value with A549 cells [4] is on record as “did not show such increase”. Further, the “gene expression of the growth factors (VEGF-A, TGF-β1) and the inflammatory cytokines (TNF-α, IL-6) increased by the TGF-β1 stimulus in CAFs” value in the assay on CAFs is “significantly suppressed”.
“vessel dilator: peptide in reports by Vesely et al., sequence not likely to contribute to binding to GC-A (EVVPPQVLSEPNEEAGAALSPLPEVPPWTGEVSPAQR; Vessel dilator; UniProt P01160 56-92, looked up)”: the “growth-suppressing activity on tumor (cancer) cells” value (“growth-suppressing activity” below) with tumor cells is recorded as “the same or stronger growth-suppressing activity”.
As for “hBNP: 32-amino acid BNP of human origin (SPKMVQGSGCFGRKMDRISSSSGLGCKVLRRH: SEQ ID NO: 3), GC-A agonist”, in the assay with A549 cells [1], the “effect of suppressing EMT” value is given as “significantly suppressing EMT”. In addition, the “growth-suppressing activity” value in the assay with tumor cells is given as “does not have such a growth-suppressing activity”. For the same substance, in assay [3], the “cGMP level of the CAFs” value is recorded as “did not show such an action”. In addition, the “intracellular cGMP level of the A549 cells” value in the assay on A549 cells [4] is on record as “increased the intracellular cGMP level of the A549 cells in a concentration-dependent manner”. Besides, the “gene expression of the growth factors (VEGF-A, TGF-β1) and the inflammatory cytokines (TNF-α, IL-6) increased by the TGF-β1 stimulus in CAFs” value in the assay on CAFs is “did not show any effect on CAFs”.
As for “long acting natriuretic peptide: peptide in reports by Vesely et al., sequence not likely to contribute to binding to GC-A (NPMYNAVSNADLMDFKNLLDHLEEKMPLED; Long-acting natriuretic peptide; UniProt P01160 26-55, looked up)”, the “growth-suppressing activity” value with tumor cells is on record as “the same or stronger growth-suppressing activity”.
With “kalliuretic peptide: peptide in reports by Vesely et al., sequence not likely to contribute to binding to GC-A (SSDRSALLKSKLRALLTAPR; Kaliuretic peptide; UniProt P01160 104-123, looked up)”, the “growth-suppressing activity” value with tumor cells is given as “the same or stronger growth-suppressing activity”.
